Laboratory results reported in patent US11167006B2 (Shanghai Tianci Life Science Development Co., Ltd., priority 2016, dated 2021).
Square brackets hold non-standard residues; d marks the D form. Peptide text beside a SMILES is read from it. NMeF = CN[C@@H](Cc1ccccc1)C(=O)O

Assays:
Assay type in all cases: in vivo
[1] = test system: acute pain caused by photothermal therapy in male mice of Kunming strain; assay: Mouse photothermal tail flick analgesia experiment
Experimental: After the drug was injected into the lateral ventricle, intrathecal, subcutaneous, and intraperitoneal, the modulating activity on pain was measured by the photothermal tail flick test in mouse.
In the lateral ventricle administration, the lateral ventricle tube-buried surgery of the mouse should be performed in advance to ensure the accuracy of the drug injection site. A brain stereotaxic instrument was used in the lateral ventricle tube-buried surgery of the mouse. Male mice of Kunming strain, weighing 21±2 g; brain stereotaxic instrument is Jiangwan I. After the mice were anesthetized with sodium pentobarbital (i.p., 80 mg/kg mouse body weight), the hair in the head surgery area of the mouse was cut off and the mouse was placed on the brain stereotactic instrument and fixed. The surgery area was disinfected with iodophor, the scalp was opened along the sagittal suture to reveal the skull and the position of the anterior fontanelle can be found. 3 mm backward and 1 mm left/right from the anterior fontanelle, the upper position of the lateral ventricle can be found. A self-made stainless steel tube (a section of 24-gauge, which is connected to a small section of PE-10 tube) is inserted 3 mm downward according to the above position, which is the lateral ventricle. A section of stainless steel string (28-gauge) is inserted into the above-mentioned steel tube to prevent cerebrospinal fluid spillage and foreign matter infection and block the steel pipe. The steel tube is fixed with medical dental powder and glue, and after solidification, the wound is sutured. After the surgery, the mice were recovered tier 4 days, and the follow-up experiment was started on the 5th day. Surgical instruments, stainless steel tubes, etc. involved in the experiment need to be disinfected before the surgery. The mouse lateral ventricle was injected with 4 μl of the drug each time, and then the steel tube was rinsed with 1 μl of physiological saline.
Spinal cord level administration is performed by intrathecal injection in conscious mice, and the specific procedure is described in the method reported by Hylden and Wilcox (Eur. J. Pharmacol. 1980, 67: 313). A 25 μL microinjector was inserted directly into the subarachnoid space between L5 and L6.
The intraperitoneal administration was directly injected using a 1 mL syringe at an injection volume of 10 μl/g body weight. At the time of injection, the mouse was held by left hand with their abdomen facing up and the head was at low position while the tail was at high position. The side of the midline of the abdomen was taken, the needle hole of the syringe was upward, the needle tip penetrates into the skin in a direction less than 20 degrees, the needle tip was slightly pushed in the direction of the mouse head and sticking abdominal wall, and then punctures into the abdominal cavity in the direction of 45 degrees, and was withdrawn to confirm that it has not been pierced into the blood vessel or the intestine, afterwards the drug solution is slowly pushed out.
Subcutaneous injection was also administered directly using a 1 mL syringe in an injection volume of 10 μl/g body weight. At the time of injection, the neck and tail of the mouse were fixed in the left hand, and the head and body were inclined downward at 45 degrees. The needle hole of the syringe is upward, the needle tip is slowly pierced into the skin on the right side of the back center line at an angle of less than 20 degrees, and the needle tip is lightly picked up to confirm that there is no piercing, afterwards the drug solution is slowly pushed out.
Male mice of Kunming strain were used to detect the effects of drugs on pain perception using a photothermal tail flick instrument. The ambient temperature is controlled at 22±1° C., and the experimental animals are free to eat and drink. The basic tail flick incubation period (3-5 seconds) was determined prior to administration, and mice that were too sensitive or dull were discarded. […]

[2] = test system: CCI-induced neuralgia in mouse; assay: Analgesic tolerance and cross-tolerance in CCI-induced neuralgia
Experimental: CCI-induced neuralgia in mouse was detected using a PL-200 thermal tingling instrument and an electronic Von Frey tenderness instrument. The thermal pain threshold of one group of normal mice and the mechanical pain threshold of another group of normal mice were first determined. The mice were then anesthetized with sodium pentobarbital 80 mg/kg mouse body weight) and the mice were fixed in the prone position. The right sciatic nerve was exposed and 3 mild ligation rings were made around the sciatic nerve using a 4-0 chromic catgut, 1 mm intervals. The ligation intensity is preferably a slight tremor in the right hind leg. On the 10th day after surgery, the thermal pain sensitivity value and mechanical pain sensitivity value of the right hind paw of the two groups of mice were determined. Compound 9 or morphine was then administered subcutaneously for seven consecutive days, and compound 9 was given to mice in the morphine group on day 8. The thermal tingling and mechanical pain thresholds at different time points after administration were recorded.
The experimental data were expressed as mean±standard error (Means±S.E.M.). Data for differences between groups treated with the same drug were analyzed by one-way ANOVA (Tukey HSD test of one-way ANOVA) for statistics and analysis, *P<0.05. **P<0.01, ***P<0.001 indicates a significant difference between the pain threshold of the drug-treated group and the pain threshold after the First day of administration.

[3] = test system: blood pressure of Wistar male rats; assay: Blood pressure in anesthetized rats; conditions: rat, intrathecal; doses 1, 3, 10, 30 nmol
Text: Wistar male rats weighing 200-250 g. After urethane (1.3 g/kg) anesthesia, the trachea was cut to prevent suffocation. The femoral was isolated and a PE-10 artery cannula was inserted in an insertion depth of approximately 2 cm. The arterial cannula was connected to a pressure transducer PT-100, and the PT-100 was connected to a biofunctional experiment BL-420F system to record mean arterial pressure and pulsatile arterial pressure. An additional PE-10 was inserted from the lumbar vertebra L4-L5 and inserted 3 cm along the subarachnoid space up to the spine T12-L1 for intrathecal administration. After the surgery, the rats were allowed to stabilize for 30 min. Then, intrathecal administration of physiological saline or different doses of the drug, the dose of the drug was from small to large, and each dose interval was more than 40 min. Changes in blood pressure of the rats after administration were recorded.
The experimental results of cardiovascular regulation in rats were expressed as changes in blood pressure, and the relevant data were expressed as mean±standard error (Means±S.E.M.), Differences between groups treated with different drug concentrations were analyzed by one-way ANOVA (Bonferroni test in one-way ANOVA) for data statistics and analysis.

[4] = subcutaneous, seven consecutive days

**Q.** Which “analgesia ED50 value” ([1]; abdominal (intraperitoneal)) does the source give for C[C@@H](NC(=O)[C@@H](N)Cc1ccc(O)cc1)C(=O)NCC(=O)N(C)[C@@H](Cc1ccccc1)C(=O)NCC(=O)N1CCC[C@H]1C(=O)N[C@@H](CCC(N)=O)C(=O)N[C@@H](CCCNC(=N)N)C(=O)N[C@@H](Cc1ccccc1)C(N)=O [Compound 9, Tyr-D-Ala-Gly-NMe-Phe-Gly-Pro-Gln-Arg-Phe-NH2] (H-Y[dA]G[NMeF]GPQRF-NH2) here?
**A.** Its value is 26.58 mg/kg.

**Q.** What about the “analgesic potency relative to BN-9” value ([1]; intrathecal) of the same compound?
**A.** Its value is 218 times.

**Q.** And the “analgesic ED50 value” ([1]; intrathecal administration)?
**A.** The value was 1.33 pmol.

**Q.** What about the “maximum analgesic MPE value” ([1]; intrathecal, 5 pmol) of the same compound?
**A.** The value was 94.7%.

**Q.** And the “analgesic ED50 value” ([1]; lateral ventricle administration)?
**A.** Its value is 16.3 pmol.

**Q.** What about the “ED50 value (nmol) (95% confidence interval), analgesic activity” value ([1]; lateral ventricle injection) of the same compound?
**A.** The value was 0.0163 (0.0145 to 0.0182) nmol.

**Q.** What about the “analgesic potency relative to BN-9” value ([1]; lateral ventricle, from ED50 values) of the same compound?
**A.** The value was 23.9 times.

**Q.** What about the “analgesia ED50 value” ([1]; subcutaneous) of the same compound?
**A.** The value was 0.2279 mg/kg.

**Q.** And the “cross-tolerance between compound 9 and morphine” value ([2]; morphine-tolerant mice given compound 9 s.c. on day 8)?
**A.** The value was “no cross-tolerance”.

**Q.** And the “analgesic tolerance on continuous injection, mechanical pain sensitivity” value [2, 4]?
**A.** The value was “not significantly different from that obtained in the first day”.

**Q.** And the “analgesic tolerance on continuous injection, thermal sensitivity pain” value [2, 4]?
**A.** Its value is “not significantly different from that obtained in the first day”.

**Q.** And the “dose producing a significant blood pressure-lowering effect” value [3]?
**A.** The value was “more than 1 nmol”.
